# Experimental data published in patent US20160251332A1, “Herbicidal Compounds” (SYNGENTA PARTICIPATIONS AG, priority 2013, published 2016).
# What was measured:
# Type in all cases: in vivo
# Zea mays [1] = assay: Pre-emergence herbicidal activity, ZEAMX; details: Application pre-emergence, 1000 g/Ha, evaluated after 13 days, scale 0-5
# Description: (§1) Seeds of a variety of test species were sown in standard soil in pots. After cultivation for one day (pre-emergence) under controlled conditions in a glasshouse (at 24/16° C., day/night; 14 hours light; 65% humidity), the plants were sprayed with an aqueous spray solution derived from the formulation of the technical active ingredient in acetone/water (50:50) solution containing 0.5% Tween 20 (polyoxyethelyene sorbitan monolaurate, CAS RN 9005-64-5). The test plants were then grown in a glasshouse under controlled conditions (at 24/16° C., day/night; 14 hours light; 65% humidity) and watered twice daily. After 13 days, the test was evaluated (5=total damage to plant; 0=no damage to plant).
# Abutilon theophrasti [2] = assay: Pre-emergence herbicidal activity, ABUTH; details: Application pre-emergence, 1000 g/Ha, evaluated after 13 days, scale 0-5
# Description: as §1
# Echinochloa crus-galli [3] = assay: Pre-emergence herbicidal activity, ECHCG; details: Application pre-emergence, 1000 g/Ha, evaluated after 13 days, scale 0-5
# Description: as §1
# Alopecurus myosuroides [4] = assay: Post-emergence herbicidal activity, ALOMY; details: Application post-emergence, 1000 g/Ha, evaluated after 13 days, scale 0-5
# Description: (§2) Seeds of a variety of test species were sown in standard soil in pots. After 8 days cultivation (post-emergence) under controlled conditions in a glasshouse (at 24/16° C., day/night; 14 hours light; 65% humidity), the plants were sprayed with an aqueous spray solution derived from the formulation of the technical active ingredient in acetone/water (50:50) solution containing 0.5% Tween 20 (polyoxyethelyene sorbitan monolaurate, CAS RN 9005-64-5). The test plants were then grown in a glasshouse under controlled conditions (at 24/16° C., day/night; 14 hours light; 65% humidity) and watered twice daily. After 13 days, the test was evaluated (5=total damage to plant; 0=no damage to plant).
# Setaria faberi [5] = assay: Post-emergence herbicidal activity, SETFA; details: Application post-emergence, 1000 g/Ha, evaluated after 13 days, scale 0-5
# Description: as §2
# Alopecurus myosuroides [6] = assay: Pre-emergence herbicidal activity, ALOMY; details: Application pre-emergence, 1000 g/Ha, evaluated after 13 days, scale 0-5
# Description: as §1
# Abutilon theophrasti [7] = assay: Post-emergence herbicidal activity, ABUTH; details: Application post-emergence, 1000 g/Ha, evaluated after 13 days, scale 0-5
# Description: as §2
# Zea mays [8] = assay: Post-emergence herbicidal activity, ZEAMX; details: Application post-emergence, 1000 g/Ha, evaluated after 13 days, scale 0-5
# Description: as §2
# Echinochloa crus-galli [9] = assay: Post-emergence herbicidal activity, ECHCG; details: Application post-emergence, 1000 g/Ha, evaluated after 13 days, scale 0-5
# Description: as §2
# Setaria faberi [10] = assay: Pre-emergence herbicidal activity, SETFA; details: Application pre-emergence, 1000 g/Ha, evaluated after 13 days, scale 0-5
# Description: as §1
# Amaranthus retroflexus [11] = assay: Post-emergence herbicidal activity, AMARE; details: Application post-emergence, 1000 g/Ha, evaluated after 13 days, scale 0-5
# Description: as §2
# Amaranthus retroflexus [12] = assay: Pre-emergence herbicidal activity, AMARE; details: Application pre-emergence, 1000 g/Ha, evaluated after 13 days, scale 0-5
# Description: as §1
SMILES,ZEAMX damage score (Zea mays [1]),ABUTH damage score (Abutilon theophrasti [2]),ECHCG damage score (Echinochloa crus-galli [3]),ALOMY damage score (Alopecurus myosuroides [4]),SETFA damage score (Setaria faberi [5]),ALOMY damage score (Alopecurus myosuroides [6]),ABUTH damage score (Abutilon theophrasti [7]),ZEAMX damage score (Zea mays [8]),ECHCG damage score (Echinochloa crus-galli [9]),SETFA damage score (Setaria faberi [10]),AMARE damage score (Amaranthus retroflexus [11]),AMARE damage score (Amaranthus retroflexus [12])
COc1ccccc1-c1cnc(N2C(=O)N(C)CC2O)cc1C(F)(F)F (stereo not drawn) [Compound A18],1,2,3,2,2,2,5,5,4,1,5,2
CN1CC(O)N(c2cc(C(F)(F)F)c(Br)cn2)C1=O (stereo not drawn) [Compound A19],5,5,5,5,5,5,5,4,5,5,5,5
CN1CC(O)N(c2cc(C(F)(F)F)c(Cl)cn2)C1=O (stereo not drawn) [Compound A36],2,5,5,5,5,4,5,5,5,4,5,5
CN1CC(O)N(c2cc(C(C)(F)F)ccn2)C1=O (stereo not drawn) [Compound A37],2,5,3,5,5,4,5,4,4,1,5,5
CN1CC(O)N(c2cc(C(C)(C)F)ccn2)C1=O (stereo not drawn) [Compound A38],0,5,4,5,5,4,5,4,5,4,5,5
COc1cnc(N2C(=O)N(C)CC2O)cc1C(F)(F)F (stereo not drawn) [Compound A39],2,5,4,5,5,4,5,4,5,4,5,5
Cc1cnc(N2C(=O)N(C)CC2O)cc1C(F)(F)F (stereo not drawn) [Compound A40],4,5,5,5,5,4,5,4,5,4,5,5
